# From patent publication US20260041732A1, “USE OF APELIN FOR THE TREATMENT OF LYMPHEDEMA” (INSTITUT NATIONAL DE LA SANTE ET DE LA RECHERCHE MEDICALE, priority 2022, published 2026)
# What was measured:
# C57B1/6 female mice [1] = assay: Lymphangiography with FITC-Dextran in lymphedema mouse model; format: in vivo; conditions: two weeks after surgery
# Description: Two weeks after surgery, mice were anesthetized with an intraperitoneal injection of ketamine (100 mg/kg) (Zoletil 100, Virbac) and xylazine (10 mg/kg) (Rompun 2%, Bayer). FITC-Dextran ([…], 2 mg/mL, Sigma) was injected into the footpad of lymphedema and control limb. The fluorescent molecule was taken up by the lymphatics and excluded from the blood vessels. After 5 min, the skin was analyzed under the modular stereo microscope discovery. V12 stereo (Zeiss).
# C57B1/6 female mice [2] = assay: Histology of skin sections, Lyve1 and CD31 immunostaining; format: in vivo, mouse; conditions: lymphedema limb skin
# Description: Skin of lymphedema and control limb were collected 2 weeks after surgery and fixed in 10% neutral buffered formalin O/N at 4° C. Tissue are then embedded in paraffin and sectioned on a microtome. 5 μm sections were cut and placed on Superfrost Plus slides. Tissue were deparaffinized, rehydrated and antigen unmasking was realized with pH 9 Tris solution (H-3301, Vector Laboratories) 5 min three times in a microwave. After cooling, slides were washed in PBS and then blocked with 5% BSA solution at room temperature in humid chamber. Sections were incubated with primary antibodies O/N at 4° C. (Goat anti-murine Lyvel, R&D AF2125; rabbit anti-CD31, abcam Ab28364) and washed three times in PBS. Sections were incubated with the corresponding secondary antibodies conjugated to Alexa-488 or -594 for 1h at room temperature au 1/400 dilution. DNA was stained with DAPI. Slides were mounted with Dako Fluorescence Mounting Medium (S3023). Images were acquired a fluorescent inverted microscope (Leica, DMi8). Images were analysed with Fiji software.
# C57B1/6 female mice [3] = assay: Mouse model of secondary lymphedema, limb size measured using caliper; format: in vivo; conditions: LV-apelin treated mice submitted to L-NAME treatment
# Description: Mouse procedures were performed in accordance with EU and national regulation. C57B1/6 mouse were provided by Envigo. All experiments have been approved by the local branch Inserm Rangueil-Purpan of the Midi-Pyrénées ethics committee. Secondary lymphedema was established as previously described (Morfoisse et al. 2018). Briefly, lymphedema was established in the left upper limb of 6 weeks-old C57B1/6 female mice. A partial mastectomy of the second mammary gland is performed in association with axillary and brachial lymphadenectomy. Limb size was measured over time in the axillary region using caliper. Mice sustained edema for a period of 2 weeks. The day of the surgery, PBS or apelin lentiviral vector were injected in intradermic in the lymphedema limb (3 injections of 4 μL). […] For L-NAME (N^G-nitro-L-arginine methyl ester) (Sigma) treatment, L-NAME was resuspended in water (1 mg/ml) and mice were allowed to drink freely for 7 days.
# [4] = system: afferent collecting lymphatic vessels to the popliteal lymph node; assay: Collecting vessel contraction measures (intravital imaging); format: in vivo, mouse; conditions: L-NAME in drinking water 7 days
# Description: Vessel contraction measurement of afferent collecting lymphatic vessels to the popliteal lymph node (PLN) were performed as described previously (Liao S. et al.). Briefly mice were anesthetized with an intraperitoneal injection of ketamine (100 mg/Kg) and xylazine (10 mg/kg). 6 μL of FITC-Dextran was injected into the footpad of the lower right limb. The skin is carefully removed to expose afferent collecting lymphatic vessels to the PLN. Mouse is then placed into a petri dish and onto the stage of an inverted microscope (Leica, DMi8). 4 videos of 90 sec were acquired per mice and the number of contraction and dilatation (difference between maximum and minimum diameter) was analysed using Fiji software. To assess the effect of Apelin, lentiviral vector was injected into the derm in the lower right limb 7 days before the experiment. For L-NAME study, mice were allowed to drink freely for 7 days.
# C57B1/6 female mice [5] = assay: Evaluation of dermis fibrosis, Masson's trichrome coloration; format: in vivo, mouse; conditions: lymphedema limb skin
# Description: Dermis fibrosis was evaluated with Masson's trichrome coloration (MST-100T, Cliniscience). Skin sections were deparraffinized and tissue were stained according the manufacturer's recommendations. Images were acquired on a nanozoomer slide scanner. Dermis size quantification was performed using at least 10 measurements of the length between epidermis and hypodermis per field.
# [6] = system: Human dermal lymphatic endothelial cells (HDLEC); assay: Bulk RNA-sequencing, differential gene expression and GO analysis; format: cell-based; conditions: compared to WT
# Description: Human dermal lymphatic endothelial cells (HDLEC) (single donor, juvenile foreskin, Promocell, C-12216, >95% of the cells are CD31 positive and podoplanin positive) were cultured in Endothelial Cell Media MV2 (EGM-MV2, Promocell, C-22121). NIH3T3 were cultured in Dulbecco's modified Eagle's medium (DMEM, Sigma, D6429) supplemented with 10% fetal bovine serum (FBS, Gibco, 10270-06) and 1% penicillin-streptomycin. Endothelial cells were used at passage 3-6 and human fibroblasts were used at passage 4-7. Cells were cultured at 37° C. in a 5% CO2 incubator. Culture medium was changed 3 times a week, and the cells were passaged ⅓. For collecting conditioned media, NIH3T3 were grown in 10 cm dishes, after reaching confluence, medium was removed and the cells were washed once with PBS. NIH3T3 were cultured overnight in 5 mL reduced serum medium optiMEM (Gibco), the medium was then collected and used for experiments. HDLEC were treated with 50% conditioned media/50% MV2-05% FBS. Total RNA from HDLEC transduced or not with Apelin Lentivector were prepared using the RNeasy mini kit (Qiagen 74106). Total RNA were then subjected to ribosomal-RNA depleted RNA sequencing (RNA-Seq) protocol performed by Genewiz company using Illumina HiSeq, PE 2×150 configuration. Sequence reads were trimmed to remove possible adapter sequences and nucleotides with poor quality using Trimmomatic v.0.36. The trimmed reads were mapped to the Homo sapiens GRCh38 reference genome available on ENSEMBL using the STAR aligner v.2.5.2b. The STAR aligner is a splice aligner that detects splice junctions and incorporates them to help align the entire read sequences. BAM files were generated as a result of this step. Unique gene hit counts were calculated by using feature Counts from the Subread package v.1.5.2. The hit counts were summarized and reported using the gene_id feature in annotation file. Only unique reads that fell within exon regions were counted. Distribution of read counts in libraries were examined before and after normalization. The original read counts were normalized to adjust for various factors such as variations of sequencing yield between samples. These normalized read counts were used to accurately determine differentially expressed genes. Data quality assessments were performed to detect any samples that are not representative of their group, and thus, may affect the quality of the analysis. The overall similarity among samples were assessed by the Euclidean distance between samples. This method was used to examine which samples are similar/different to each other and if they fit to the expectation from the experiment design. The shorter the distance, the more closely related the samples are. Samples were then clustered by using the distance. A principal component analysis was also performed to reveal the similarity between samples based on the distance matrix. After extraction of gene hit counts, the gene hit counts table was used for downstream differential expression analysis. Using DESeq2, a comparison of gene expression between Apelin transduced LEC against non-transduced LEC was performed. The Wald test was used to generate p-values and log2 fold changes. […] The global transcriptional change across the two groups compared was visualized by a volcano plot. Each data point in the volcano plot represents a gene. The log2 fold change of each gene is represented on the x-axis and the log10 of its adjusted p-value is on the y-axis.
# [7] = system: Human dermal lymphatic endothelial cells (HDLEC); assay: Immunoblotting of AKT, ERK and eNOS phosphorylation; format: cell-based; conditions: conditioned media
# Description: Human dermal lymphatic endothelial cells (HDLEC) (single donor, juvenile foreskin, Promocell, C-12216, >95% of the cells are CD31 positive and podoplanin positive) were cultured in Endothelial Cell Media MV2 (EGM-MV2, Promocell, C-22121). NIH3T3 were cultured in Dulbecco's modified Eagle's medium (DMEM, Sigma, D6429) supplemented with 10% fetal bovine serum (FBS, Gibco, 10270-06) and 1% penicillin-streptomycin. Endothelial cells were used at passage 3-6 and human fibroblasts were used at passage 4-7. Cells were cultured at 37° C. in a 5% CO2 incubator. Culture medium was changed 3 times a week, and the cells were passaged ⅓. For collecting conditioned media, NIH3T3 were grown in 10 cm dishes, after reaching confluence, medium was removed and the cells were washed once with PBS. NIH3T3 were cultured overnight in 5 mL reduced serum medium optiMEM (Gibco), the medium was then collected and used for experiments. HDLEC were treated with 50% conditioned media/50% MV2-05% FBS.
# Cells were scrapped and lysed in RIPA buffer (RIPA 2X, Biotech RB4476) supplemented with phosphatase inhibitor (PhosSTOP Easypack, Roche0490687001) and protease inhibitors (protease inhibitor cocktail, Sigma Aldrich). Lysates were centrifuged at 13500 g for 10 minutes at 4° C. Supernatants were then collected and mix with Laemmli buffer containing dithiothreitol (DTT 1 mM). Protein were resolved on 4-15% SDS-PAGE gels and transferred to nitrocellulose membrane (Trans-Blot Turbo RTA transfer kit, #1704271, Biorad). Membranes were blocked for 1h at room temperature in 5% BSA-TBS-T (TBS-0.1% Tween 20) and probed with primary antibody overnight at 4° C. Antibody used are the following: Phospho AKT: AKT-p ser473 (CS #4060S), AKT: santa cruz H136 (S8312), Phospho ERK: ERK1/2-p (MAPKp42/44) (Thr202/Thr204) (cell signalling #9106), ERK ERK1/2-(MAPKp42/44) (Thr202/Thr204) (cell signalling #9102), Phospho eNOS (cell signalling #9571S), eNOS (cell signalling #5880S), E2F8 (Abcam, AB109596), VEGFR3 (RID system AF349), Phospho-VEGFR3 (Affinity AF3676), CCBE1 (Sigma SAB1402017).
# After three washes in TBS-T, membranes were probed with HRP-conjugated secondary antibodies at 1/10000 dilution. Signals were visualized with chemiluminescence detection reagent (Sigma) on a Chemidoc (Biorad) digital acquisition system.
Molecule,lymphatic vessel morphology / remodelling (lymphangiography) (C57B1/6 female mice [1]),lymphatic vessel dilatation (vessel area / diameter) (C57B1/6 female mice [2]),effect on apelin benefit on lymphedema (limb diameter) (C57B1/6 female mice [3]),effect on apelin-stimulated collector dilatation [4],fibrosis (C57B1/6 female mice [5]),"expression of genes related to VEGFC maturation (ADAMTS2, CCBE1) [6]",eNOS phosphorylation ([7]; HDLEC),AKT activation (phosphorylation) ([7]; 24 h time course),ERK activation ([7]; 24 h time course)
"COC(=O)[C@@H](N)CCCNC(=N)N[N+](=O)[O-] [L-NAME, N^G-nitro-L-arginine methyl ester]",reverse apelin effect on lymphatic vascular network,inhibited,reversed the beneficial effect of apelin on lymphedema,completely reversed,no effect on fibrosis,–,–,–,–
"VEGF-C: vascular endothelial growth factor C; media containing VEGF-C used as positive control on HDLEC (protein, listed as Homo sapiens) MHLLGFFSVACSLLAAALLPGPREAPAAAAAFESGLDLSDAEPDAGEATAYASKDLEEQLRSVSSVDELMTVLYPEYWKMYKCQLRKGGWQHNREQANLNSRTEETIKFAAAHYNTEILKSIDNEWRKTQCMPREVCIDVGKEFGVATNTFFKPPCVSVYRCGGCCNSEGLQCMNTSTSYLSKTLFEITVPLSQGPKPVTISFANHTSCRCMSKLDVYRQVHSIIRRSLPATLPQCQAANKTCPTNYMWNNHICRCLAQEDFMFSSDAGDDSTDGFHDICGPNKELDEETCQCVCRAGLRPASCGPHKELDRNSCQCVCKNKLFPSQCGANREFDENTCQCVCKRTCPRNQPLNPGKCACECTESPQKCLLKGKKFHHQTCSCYRRPCTNRQKACEPGFSYSEEVCRCVPSYWKRPQMS",–,–,–,–,–,improved,observed,strong activation,strong activation
